No end group written: not given here.
Key:
CCD966-SK cells = assay type: cell-based, human; conditions: 16 µM
Procedure: RAW 264.7 murine macrophage cells, CCD966-SK human fibroblast cells, and HaCaT human keratinocytes were procured from BCRC, Taiwan. RAW264.7 and HaCaT cells were cultivated in DMEM supplemented with 10% FBS, streptomycin (100 μg/mL), and penicillin (100 U/mL) at 37 °C and 5% CO2. CCD966-SK were cultivated in MEM with 0.1 mM nonessential amino acids with 10% FBS, streptomycin (100 μg/mL), and penicillin (100 U/mL) at 37 °C and 5% CO2. In vitro cytotoxicity of the TP4-Meropenem conjugates was evaluated with an alamarBlue assay. Briefly, 5 × 10^4 RAW264.7 cells/well or 5 × 10^3 CCD966-SK or 1 × 10^4 HaCaT cells/well were seeded in 96-well plates for 24 h and then treated with different concentrations of peptide/conjugate. Controls included 0.1% Triton-X-treated cells and cells in a culture medium. After 24 h of treatment, the cells were washed and incubated with 90 μL of DMEM and 10 μL of alamarBlue reagent for 2 h. The absorbances at 570 and 600 nm were measured using a Spectra Max i3 (Molecular Devices, CA). Cell viability was calculated using the formula as described in the protocol. The LDH assay was carried out using the cytotoxicity detection kit PLUS according to a previously described protocol.[33]

E. coli 8–8 = assay type: cell-based, Escherichia coli; conditions: Mueller Hinton broth, 50 μL of 1 × 10^6 CFU/mL + 50 μL sample, 37 °C, 16–20 h; three independent replicates, each in triplicate
Procedure: (§1) E. coli 8–8, A. baumannii 2982, and S. aureus 13–1 were procured from the Bioresource Collection and Research Center (BCRC), Taiwan. NDM-1-positive E. coli BAA 2452 was procured from ATCC. All strains were cultured in Mueller Hinton broth (MHB). The concentration of bacteria was identified by the absorbance at OD600. The colony forming units (CFU) corresponding to different OD600 values were identified by plating on the Mueller Hinton agar (MHA) plate.
(§2) Antibacterial analysis was performed according to a standard protocol.[32] Overnight cultures of test bacteria were prepared and freshly subcultured. Briefly, 50 μL of 1 × 10^6 CFU/mL bacterial cells was treated with 50 μL of peptide or conjugate at different concentrations in a 96-well plate. The plates were incubated at 37 °C for 16–20 h. The lowest concentration of peptide/conjugate showing no growth was considered the minimum inhibitory concentration (MIC). To identify the MIC (MBC), 5 μL of incubated suspensions from growth-free wells was plated onto MHA and incubated overnight at 37 °C. The lowest concentration of peptide/conjugate showing no growth on the MHA plate was considered to be the MBC. The experiments were performed in three independent replicates, each in triplicate.

A. baumannii 2982 = assay: microbe, parasite or virus in culture; assay type: cell-based, Acinetobacter baumannii; conditions: Mueller Hinton broth, 50 μL of 1 × 10^6 CFU/mL + 50 μL sample, 37 °C, 16–20 h, three independent replicates, each in triplicate
Procedure: as §1, §2

S. aureus 13–1 = assay: microbe, parasite or virus in culture; assay type: cell-based; conditions: Mueller Hinton broth, 50 μL of 1 × 10^6 CFU/mL + 50 μL sample, 37 °C, 16–20 h, three independent replicates, each in triplicate
Procedure: as §1, §2

NDM E. coli BAA 2452 [1] = assay: microbe, parasite or virus in culture; assay type: cell-based; conditions: Escherichia coli, BAA2452; 5 μL from growth-free wells plated onto MHA, overnight at 37 °C; three independent replicates, each in triplicate
Procedure: as §1, §2

NDM E. coli BAA 2452 [2] = assay: microbe, parasite or virus in culture; assay type: cell-based, Escherichia coli; conditions: for MIC: NDM-1-positive MDR strain, Mueller Hinton broth, 37 °C, 16–20 h, three independent replicates, each in triplicate
Procedure: as §1, §2

RBCs = assay type: cell-based, Human
Procedure: Human RBCs were used to examine the hemolytic profiles of the peptides and conjugates. The RBCs were washed three times with PBS and centrifuged at 1000g. Then, 50 μL of a 2% RBC suspension was added to 50 μL of peptide/conjugate solution at different concentrations. The mixture was incubated at 37 °C for 1 h. The incubated mixture was centrifuged, and hemolysis was assessed by measuring the absorbance of the supernatant at 540 nm.

## FIHHIIGGLFSAGKAIHRLIRRRRR [TP4, Tilapia piscidin-4]
CCD966-SK cells
  cell viability, CCD966-SK: 23.9 ± 1.2%

## D-Tilapia piscidin 4 [D-TP4]
E. coli 8–8
  minimum inhibitory concentration (MIC) E. coli 8–8: 2 to 4 µM
A. baumannii 2982
  minimum inhibitory concentration (MIC) A. baumannii 2982: 2 to 4 µM
S. aureus 13–1
  minimum inhibitory concentration (MIC) S. aureus 13–1: 2 to 4 µM

## C[C@@H](O)[C@H]1C(=O)N2C(C(=O)O)=C(S[C@@H]3CN[C@H](C(=O)N(C)C)C3)[C@H](C)[C@H]12 [Meropenem]
A. baumannii 2982; Acinetobacter baumannii, 2982, read-out: minimum inhibitory concentration (MIC) A. baumannii 2982
  MIC: > 32 µM
NDM E. coli BAA 2452 [1]
  MBC: > 64 µM
S. aureus 13–1; Staphylococcus aureus, read-out: minimum inhibitory concentration (MIC) S. aureus 13–1
  MIC: 0.25 µM
NDM E. coli BAA 2452 [2]; Escherichia coli, BAA2452
  MIC: > 64 µM
NDM E. coli BAA 2452 [2]
  MIC: >64 µM

## FIHHIIGGLFSAGKAIHRLIRRRRR [L-TP4, Tilapia piscidin-4] [listing 1 of 2 here]
RBCs; 4 µM
  hemolysis (% of the total cells) at 4 μM: 44.4 ± 4.3%
RBCs; 8 µM
  hemolysis (% of the total cells) at 8 μM: 84.1 ± 6.2%

## FIHHIIGGLFSAGKAIHRLIRRRRR [L-TP4, Tilapia piscidin-4] [listing 2 of 2 here]
NDM E. coli BAA 2452 [2]; BAA 2452
  MIC NDM E. coli BAA 2452: 4 to 8 µM

— publication PMC11238198, “Rejuvenation of Meropenem by Conjugation with Tilapia Piscidin-4 Peptide Targeting NDM-1 Escherichia coli” (ACS Omega, 2024)
